Experimental data from US7700609B2, “Compositions useful as inhibitors of protein kinases” (Vertex Pharmaceuticals Incorporated, priority 2003, dated 2010).

Columns and labels:
Itk [1] = biological target: T1, Itk (Homo sapiens, UniProt Q08881); assay: Itk inhibition assay: radioactivity-based (Method A); format: biochemical; settings: 15 μM ATP, read-out: IC50 in the radioactive incorporation assay (Method A)
T1 sequence (Q08881 1-620): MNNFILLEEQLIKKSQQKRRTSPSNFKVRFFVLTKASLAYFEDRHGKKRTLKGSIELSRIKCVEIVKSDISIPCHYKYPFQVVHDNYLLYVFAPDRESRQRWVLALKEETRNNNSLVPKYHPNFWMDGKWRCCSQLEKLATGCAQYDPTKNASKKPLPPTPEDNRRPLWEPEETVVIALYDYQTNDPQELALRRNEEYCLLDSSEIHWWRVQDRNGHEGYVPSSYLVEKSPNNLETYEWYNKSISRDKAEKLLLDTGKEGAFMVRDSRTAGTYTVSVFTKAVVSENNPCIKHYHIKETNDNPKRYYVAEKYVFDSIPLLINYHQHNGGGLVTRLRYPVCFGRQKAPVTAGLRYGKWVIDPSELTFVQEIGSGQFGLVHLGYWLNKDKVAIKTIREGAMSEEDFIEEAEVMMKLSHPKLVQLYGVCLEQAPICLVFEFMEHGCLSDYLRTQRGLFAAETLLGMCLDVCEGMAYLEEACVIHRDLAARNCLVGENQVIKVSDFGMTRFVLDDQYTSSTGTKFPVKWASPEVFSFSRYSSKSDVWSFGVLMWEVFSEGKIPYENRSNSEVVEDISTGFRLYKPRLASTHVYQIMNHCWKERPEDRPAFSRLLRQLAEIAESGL
Experimental: (§1) The compounds of the present invention were evaluated as inhibitors of human Itk kinase using either a radioactivity-based, spectrophotometric or alphascreen assay.
Assays were carried out in a mixture of 100 mM HEPES (pH 7.5), 10 mM MgCl2, 25 mM NaCl, 0.01% BSA and 1 mM DTT. Final substrate concentrations were 15 μM [γ-^33P]ATP (400 μCi ^33P ATP/μmol ATP, Amersham Pharmacia Biotech/Sigma Chemicals) and 2 μM peptide (SAM68 protein Δ332-443). Assays were carried out at 25° C. in the presence of 30 nM Itk. An assay stock buffer solution was prepared containing all of the reagents listed above, with the exception of ATP and the test compound of interest. 50 μL of the stock solution was placed in a 96 well plate followed by addition of 1.5 μL of DMSO stock containing serial dilutions of the test compound (typically starting from a final concentration of 15 μM with 2-fold serial dilutions) in duplicate (final DMSO concentration 1.5%). The plate was pre-incubated for 10 minutes at 25° C. and the reaction initiated by addition of 50 μL [γ-^33P]ATP (final concentration 15 μM).
The reaction was stopped after 10 minutes by the addition of 50 μL of a TCA/ATP mixture (20% TCA, 0.4 mM ATP). A Unifilter GF/C 96 well plate (Perkin Elmer Life Sciences, Cat no. 6005174) was pretreated with 50 μL Milli Q water prior to the addition of the entire reaction mixture (150 μL). The plate was washed with 200 μL Milli Q water followed by 200 μL of a TCA/ATP mixture (5% TCA, 1 mM ATP). This wash cycle was repeated a further 2 times. After drying, 30 μL Optiphase ‘SuperMix’ liquid scintillation cocktail (Perkin Elmer) was added to the well prior to scintillation counting (1450 Microbeta Liquid Scintillation Counter, Wallac).
IC50 data were calculated from non-linear regression analysis of the initial rate data using the Prism software package (GraphPad Prism version 3.0cx for Macintosh, GraphPad Software, San Diego Calif., USA).

Itk [2] = biological target: T1, Itk; assay: Itk inhibition assay: Alphascreen (Method B); format: biochemical; settings: 100 μM ATP
Experimental: as §1
Assays were carried out in a mixture of 20 mM MOPS (pH 7.0), 10 mM MgCl2, 0.1% BSA and 1 mM DTT. Final substrate concentrations in the assay were 100 μM ATP (Sigma Chemicals) and 2 μM peptide (Biotinylated SAM68 Δ332-443). Assays were carried out at 25° C. and in the presence of 10 nM Itk. An assay stock buffer solution was prepared containing all of the reagents listed above, with the exception of ATP and the test compound of interest. 25 μL of the stock solution was placed in each well of a 96 well plate followed by 1 μL of DMSO containing serial dilutions of the test compound (typically starting from a final concentration of 15 μM) in duplicate (final DMSO concentration 2%). The plate was preincubated for 10 minutes at 25° C. and the reaction initiated by addition of 25 μL ATP (final concentration 100 μM). Background counts were determined by the addition of 5 μL 500 mM EDTA to control wells containing assay stock buffer and DMSO prior to initiation with ATP. The reaction was stopped after 30 minutes by diluting the reaction 225-fold into MOPS buffer (20 mM MOPS (pH 7.0), 1 mM DTT, 10 mM MgCl2, 0.1% BSA) containing 50 mM EDTA to bring the final concentration of peptide to 9 nM.
AlphaScreen™ reagents were prepared according to the manufacturers instructions (AlphaScreen™ phosphotyrosine (P-Tyr-100) assay kit, PerkinElmer catalogue number 6760620C). Under subdued lighting, 20 μL of AlphaScreen™ reagents were placed in each well of a white half area 96 well plate (Corning Inc.—COSTAR 3693) with 30 μL of the stopped, diluted kinase reactions. Plates were incubated in the dark for 60 minutes prior to reading on a Fusion Alpha plate reader (PerkinElmer).
After removing mean background values for all of the data points, Ki(app) data were calculated from non-linear regression analysis using the Prism software package (GraphPad Prism version 3.0cx for Macintosh, GraphPad Software, San Diego Calif., USA).

IC50 (Itk [1])	Ki (Itk [2])	Compound
< 1000 nM		CC(=O)Nc1cccc(-c2cc3c(s2)CCc2cnc(Nc4cccc(S(N)(=O)=O)c4)nc2-3)c1 [Compound I-6]
< 1000 nM		NS(=O)(=O)c1cccc(Nc2ncc3c(n2)-c2cc(-c4ccccc4Cl)sc2CC3)c1 [Compound I-7]
	< 1000 nM	O=C(c1cc2c(ccc3cnc(Nc4ccccc4)nc32)s1)N1CCOCC1 [Compound V-52]
	< 1000 nM	CCN(CC)c1nc2ccc3cnc(Nc4cccc(S(N)(=O)=O)c4)nc3c2s1 [II-38]
	< 1000 nM	NC1CCN(C(=O)c2cc3c(ccc4cnc(Nc5cccc(S(N)(=O)=O)c5)nc43)s2)C1 (centres unmarked) [Compound V-49]
< 1000 nM		NS(=O)(=O)c1cccc(Nc2ncc3c(n2)-c2ccsc2CC3)c1 [Compound I-21]
< 1000 nM		COc1cccc(-c2cc3c(s2)CCc2cnc(Nc4cccc(S(C)(=O)=O)c4)nc2-3)c1 [Compound I-24]
	< 1000 nM	CN1CCN(c2nc3c(s2)-c2nc(Nc4cccc(S(N)(=O)=O)c4)ncc2CC3)CC1 [III-39]
	< 1000 nM	CC(C)(C)C(=O)OCc1nc2ccc3cnc(Nc4cccc(S(N)(=O)=O)c4)nc3c2s1 [II-36]
	< 1000 nM	CC(C)(C)OC(=O)N1CCN(C(=O)c2cc3c(ccc4cnc(Nc5cccc(S(N)(=O)=O)c5)nc43)s2)CC1 [Compound V-38]
< 1000 nM		NS(=O)(=O)c1cccc(Nc2ncc3c(n2)-c2cc(-c4cccc([N+](=O)[O-])c4)sc2CC3)c1 [Compound I-13]
< 1000 nM		COc1ccccc1-c1cc2c(s1)CCc1cnc(Nc3cccc(S(N)(=O)=O)c3)nc1-2 [Compound I-9]
< 1000 nM		NS(=O)(=O)c1cccc(Nc2ncc3c(n2)-c2cc(-c4cccc(C(=O)O)c4)sc2CC3)c1 [Compound I-4]
	< 1000 nM	CN1CCC(Nc2nc3c(s2)-c2nc(Nc4cccc(S(N)(=O)=O)c4)ncc2CC3)CC1 [III-35]
< 1000 nM		NS(=O)(=O)c1cccc(Nc2ncc3c(n2)-c2cc(-c4cccnc4)sc2CC3)c1 [Compound I-3]
< 1000 nM		NS(=O)(=O)c1cccc(Nc2ncc3c(n2)-c2cc(-c4ccccc4)sc2CC3)c1 [Compound I-1]
	< 1000 nM	NC1CCN(C(=O)c2cc3c(ccc4cnc(Nc5cccc(S(N)(=O)=O)c5)nc43)s2)CC1 [Compound V-48]
	< 1000 nM	CN1CCN(C(=O)c2cc3c(ccc4cnc(Nc5ccccc5)nc43)s2)CC1 [Compound V-50]
< 1000 nM		NS(=O)(=O)c1cccc(Nc2ncc3c(n2)-c2cc(-c4ccsc4)sc2CC3)c1 [Compound I-5]
< 1000 nM		COc1cccc(-c2cc3c(s2)CCc2cnc(Nc4cccc(O)c4)nc2-3)c1 [Compound I-19]
< 1000 nM		NS(=O)(=O)c1cccc(Nc2ncc3c(n2)-c2cc(-c4ccccc4OC(F)(F)F)sc2CC3)c1 [Compound I-28]
	< 1000 nM	NS(=O)(=O)c1cccc(Nc2ncc3ccc4sc(C(=O)N5CCNCC5)cc4c3n2)c1 [Compound V-4]
	< 1000 nM	CC1(C)Cc2cnc(Nc3cccc(S(N)(=O)=O)c3)nc2-c2ccsc21 [Compound I-41]
	< 1000 nM	NS(=O)(=O)c1cccc(Nc2ncc3ccc4nc(N5CCCCC5)sc4c3n2)c1 [II-39]
	< 1000 nM	NS(=O)(=O)c1cccc(Nc2ncc3c(n2)-c2sc(N4CCCCC4)nc2CC3)c1 [III-34]

IC50 (Itk [1])	Ki (Itk [2])	Compound
	< 1000 nM	NS(=O)(=O)c1cccc(Nc2ncc3ccc4nc(C(=O)N5CCNCC5)sc4c3n2)c1 [II-13]
< 1000 nM		NS(=O)(=O)c1cccc(Nc2ncc3c(n2)-c2cc(-c4cccs4)sc2CC3)c1 [Compound I-8]
	< 1000 nM	NS(=O)(=O)c1cccc(Nc2ncc3c(n2)-c2sc(CO)nc2CC3)c1 [III-38]
	< 1000 nM	Cc1nc2c(s1)-c1nc(Nc3cccc(S(N)(=O)=O)c3)ncc1CC2 [III-4]
< 1000 nM		COc1ccc(-c2cc3c(s2)CCc2cnc(Nc4cccc(S(N)(=O)=O)c4)nc2-3)cc1 [Compound I-11]
< 1000 nM		NS(=O)(=O)c1cccc(Nc2ncc3c(n2)-c2cc(-c4ccccc4CO)sc2CC3)c1 [Compound I-29]
	< 1000 nM	CN(CCNC(=O)c1cc2c(ccc3cnc(Nc4cccc(S(N)(=O)=O)c4)nc32)s1)C(=O)OC(C)(C)C [Compound V-41]
	< 1000 nM	CC(C)(C)OC(=O)NC1CCN(C(=O)c2cc3c(ccc4cnc(Nc5cccc(S(N)(=O)=O)c5)nc43)s2)CC1 [Compound V-46]
	< 1000 nM	NC1CCN(C(=O)c2cc3c(ccc4cnc(Nc5ccccc5)nc43)s2)C1 (centres unmarked) [Compound V-54]
	< 1000 nM	Cc1nc2c(s1)CCc1cnc(Nc3cccc(S(N)(=O)=O)c3)nc1-2 [IV-4]
	< 1000 nM	CN1CCN(C(=O)c2cc3c(ccc4cnc(Nc5cccc(S(N)(=O)=O)c5)nc43)s2)CC1 [Compound V-40]
	< 1000 nM	Nc1cccc(Nc2ncc3ccc4sc(C(=O)N5CCOCC5)cc4c3n2)c1 [Compound V-51]
< 1000 nM		NS(=O)(=O)c1cccc(Nc2ncc3c(n2)-c2cc(-c4ccccc4O)sc2CC3)c1 [Compound I-27]
< 1000 nM		COc1cccc(-c2cc3c(s2)CCc2cnc(Nc4cccc(S(N)(=O)=O)c4)nc2-3)c1OC [Compound I-17]
< 1000 nM		COc1cccc(OC)c1-c1cc2c(s1)CCc1cnc(Nc3cccc(S(N)(=O)=O)c3)nc1-2 [Compound I-14]
< 1000 nM		COc1cccc(-c2cc3c(s2)CCc2cnc(Nc4ccc(S(C)(=O)=O)cc4)nc2-3)c1 [Compound I-25]
< 1000 nM		COc1ccc(OC)c(-c2cc3c(s2)CCc2cnc(Nc4cccc(S(N)(=O)=O)c4)nc2-3)c1 [Compound I-20]
	< 1000 nM	CC(C)(C)C(=O)OCc1nc2c(s1)-c1nc(Nc3cccc(S(N)(=O)=O)c3)ncc1CC2 [III-31]
	< 1000 nM	COc1cccc(-c2cc3c(s2)CCc2cnc(Nc4cccc(NC(C)=O)c4)nc2-3)c1 [Compound I-36]
	< 1000 nM	Nc1cccc(Nc2ncc3ccc4sccc4c3n2)c1 [II-34]
	< 1000 nM	NCCCNC(=O)c1cc2c(ccc3cnc(Nc4cccc(S(N)(=O)=O)c4)nc32)s1 [Compound V-45]
	< 1000 nM	NS(=O)(=O)c1cccc(Nc2ncc3c(n2)-c2sc(N4CCOCC4)nc2CC3)c1 [III-32]
	< 1000 nM	NS(=O)(=O)c1cccc(Nc2ncc3ccc4nc(N5CCOCC5)sc4c3n2)c1 [II-37]
	< 1000 nM	CCN(CC)c1nc2c(s1)-c1nc(Nc3cccc(S(N)(=O)=O)c3)ncc1CC2 [III-33]
	< 1000 nM	CC(C)(C)OC(=O)NCCCNC(=O)c1cc2c(ccc3cnc(Nc4cccc(S(N)(=O)=O)c4)nc32)s1 [Compound V-39]
